Structures are written as SMILES.

One may read the IC50 as the point on the concentration scale where inhibition reaches its midpoint.

Assay [1] has as its system voltage operated calcium channels. The assay is described as follows: Depolarization (potassium) induced 45Ca uptake into synaptosomes. As to conditions: concentration inhibiting 50% of potassium stimulated uptake of 45Ca; rat cerebral cortex synaptosomes; corrected for basal uptake in non-depolarized samples. Type of assay: biochemical, male Wistar rat. The protocol:
A crude synaptosome preparation contains small vesicles surrounded by neuronal membranes, and it is possible to study an opening of the voltage operated calcium channels in such a preparation.
In the below described test influx of ^45Ca into synaptosomes is studied under depolarized conditions. The effect of test substances on the depolarization induced calcium uptake can thus be studied.
The cerebral cortex from a male Wistar rat is homogenized in 20 ml ice cold 0.32M saccharose. In the following steps the temperature is kept at 0°C to 4°C. The homogenate is centrifuged at 1,000 x g for 10 minutes and the supernatant recentrifuged for 20 minutes at 18,000 x g. The obtained pellet is resuspended in 0.32M saccharose (10 ml per g of original tissue).
Aliquots of 0.05 ml of the hereby obtained synaptosome suspension are added to glass tubes containing 0.625 ml of a NaCl buffer (136 mM Nacl, 4 Mm KCl, 0.35 mM CaCl2, 1.2 mM MgCl2, 20 mM Tris HCl, 12 mM glucose, pH 7.4) as well as 0.025 ml of different test substances in 48% ethanol. These tubes are pre-incubated for 30 minutes on ice and thereafter for 6 minutes at 37°C.
^45Ca uptake is initiated by addition to above glass-tubes of 0.4 ml ^45CaCl2 (specific activity: 29-39 Ci/g; […] per tube). For depolarized samples the 0.4 ml ^45CaCl2 contain KCl (145 mM) and for non-depolarized NaCl (145 mM). The samples are incubated for 15 seconds.
The ^45Ca uptake is stopped by filtering through glass fibre filters, which are subsequently washed 3 times with an ice cold solution of 145 mM KCl, 7 mM EGTA and 20 mM Tris HCl, pH 7.4 (5.0 ml). The radioactivity on the filters are measured by liquid scintillation spectrometry. Experiments are performed in duplicate.
Above test substances are dissolved in for example 10 ml 48% ethanol at a concentration of 0.44 mg/ml. Dilutions are made in ethanol. Test substances are tested at concentrations of 0.1, 0.3, 1, 3, 10 .... µg/ml.
The test value is given as IC50, that is the concentration in µM of the test substances, which inhibit 50% of the potassium stimulated uptake of ^45Ca. […]

The subject of the next assay is hypermotility in mice. The assay is described as follows: Hypermotility in mice induced by amphetamine or cocaine. It is filed as in vivo. The note with it: result in words. The source says:
This is in full accordance with the influence of N-type calcium channel blockers on transmitter release in the central nervous system. Therefore the compounds of the invention are useful as anti-psychotics.

With `Nc1nc2cc(F)ccc2n1-c1cccc(N2CCCC2)c1` [1-(5-(1-pyrrolidinyl)-phenyl)-2-amino-5-fluoro-benzimidazole], in assay [1], the IC50 worked out at 2000 nM.
Regarding `Nc1nc2cc(C(F)(F)F)ccc2n1-c1cc(Cl)ccc1O` [1-(2-hydroxy-5-chlorophenyl)-5-trifluoromethyl-2-amino-benzimidazole], the IC50 in assay [1] worked out at 2000 nM.
Take `COc1ccc(OC)c(-n2c(N)nc3cc(C(F)(F)F)ccc32)c1` [1-(2,5-dimethoxyphenyl)-2-amino-5-trifluoromethyl-benzimidazole]: the IC50 in assay [1] was determined as 700 nM.
Take `Nc1nc2ccccc2n1-c1cc(-c2ccccc2)ccc1O` [1-(2-hydroxy-5-phenyl-phenyl)-2-aminobenzimidazole]: in the assay on hypermotility in mice, the antagonism of hypermotility entry was “potently antagonize”.

For the origin of these results see patent publication EP0520200B1, “Imidazole compounds, their preparation and use” (NEUROSEARCH A/S, priority 1991, dated 1992).
